Assay results reported in article PMC9104950, “Stereoselective Covalent Adduct Formation of Acyl Glucuronide Metabolite of Nonsteroidal Anti-Inflammatory Drugs with UDP-Glucuronosyltransferase” (International Journal of Molecular Sciences, 2022).

Tests used:
[1] = target: T1, UGT2B4 (Homo sapiens, UniProt P06133); assay: Covalent adduct formation of NSAIDs-AG with UGT2B4; format: binding; conditions: 180 μM, UGT 3.4 μM, 6 h
T1 construct: purchased Corning, Inc
T1 sequence (P06133 24-528): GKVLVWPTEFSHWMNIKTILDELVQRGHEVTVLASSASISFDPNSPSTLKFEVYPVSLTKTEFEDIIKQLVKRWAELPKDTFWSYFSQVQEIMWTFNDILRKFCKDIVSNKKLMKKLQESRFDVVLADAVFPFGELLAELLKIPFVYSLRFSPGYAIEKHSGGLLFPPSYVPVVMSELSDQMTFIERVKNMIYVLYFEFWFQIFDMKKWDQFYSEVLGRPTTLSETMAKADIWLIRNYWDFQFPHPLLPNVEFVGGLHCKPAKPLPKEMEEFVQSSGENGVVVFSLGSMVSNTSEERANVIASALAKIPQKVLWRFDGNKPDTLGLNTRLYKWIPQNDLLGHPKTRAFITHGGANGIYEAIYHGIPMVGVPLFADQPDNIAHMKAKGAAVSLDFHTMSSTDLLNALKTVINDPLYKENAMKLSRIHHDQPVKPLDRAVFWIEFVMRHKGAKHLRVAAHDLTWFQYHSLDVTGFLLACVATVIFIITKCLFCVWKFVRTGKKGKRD
Description: (§1) The concentrations of UGT were set at 3.4 μM by the preliminary experiments on the linearity of covalent adduct formation. The covalent adduct formation of NSAIDs-AG with organelle proteins and UGT was determined according to previous reports on NSAIDs-AG with albumin with some modifications. After a deproteinization of the reaction mixture, methanol/diethyl ether (3:1) was added to the pellet. […] The concentrations of the parent NSAIDs were measured using liquid chromatography-tandem mass spectrometry (LC-MS/MS). Aliquots of 10 μL were injected into the LC-MS/MS system. The LC-MS/MS equipment consisted of an LC system (UltiMate 3000 series, Thermo Fisher Scientific, Inc.) and TSQ Endura Triple Quadrupole Mass Spectrometer with electrospray ionization (Thermo Fisher Scientific, Inc.). Finnigan Xcalibur software (Thermo Fisher Scientific, Inc.) was used for data recording and analysis. Analysis was further performed using a reversed-phase column (COSMOSIL 5C18-MSII, 2.0 mm × 150 mm, 5 μm; Nacalai Tesque, Inc.). The column temperature was set to 40 °C, and the autosampler was maintained at 10 °C. The mobile phase (A; 30% methanol in 8.5 mM ammonium formate and 0.0075% formic acid, and B; 90% methanol in 8.5 mM ammonium formate and 0.0075% formic acid) was pumped at a flow rate of 0.2 mL/min. The initial mobile phase composition was maintained at 30% mobile phase B for 1 min, changed linearly to 90% mobile phase B from 1 to 8 min, maintained for 1 min, returned to 30% mobile phase B from 9 to 10 min, and maintained for 1 min for chromatographic column equilibrium. The MS scan was operated in positive ionization mode for DIC, MEF, ZOM, KET, and NAP, or negative ionization mode, for FLU. The conditions for electrospray ionization were set at 3500 V spray voltage for positive ionization mode and 2500 V spray voltage for negative ionization mode at 400 °C capillary temperature, and 300 °C vaporizer temperature with 40 arbitrary units of nitrogen sheath gas and 10 arbitrary units of auxiliary gas. The MS scan was operated in the positive or negative ionization mode. The selected reaction monitoring (SRM) mode was used, with argon as the collision gas at 1.5 mTorr. The mass resolution was set at 0.7 full-width at half-height (unit resolution). SRM transitions (precursor and product ions) were mass to charge ratios of (m/z) 296 > 214 for DIC (positive ionization mode), 294 > 250 for DIC (negative ionization mode), 242 > 224 for MEF, 292 > 139 for ZOM, 243 > 198 for R- and S-FLU, 255 > 209 for R- and S-KET, 231 > 185 for R- and S-NAP, and 302 > 220 for DIC-d4. The collision energies were 15 V for DIC (negative ionization mode), ZOM, MEF, FLU, KET, and NAP; 35 V for DIC (positive ionization mode); and DIC-d4. The concentrations of NSAIDs were determined from a single-point calibration in every assay for NSAIDs after confirmation of linearity between area and concentrations of NSAIDs.

[2] = target: T2, UGT2B7 (Homo sapiens, UniProt P16662); assay: Covalent adduct formation of NSAIDs-AG with UGT2B7; format: binding; conditions: 180 μM, UGT 3.4 μM, 6 h; for covalent adduct formation with UGT2B7 compared with the other diastereomer: R vs S diastereomer
T2 construct: purchased Corning, Inc
T2 sequence (P16662 24-529): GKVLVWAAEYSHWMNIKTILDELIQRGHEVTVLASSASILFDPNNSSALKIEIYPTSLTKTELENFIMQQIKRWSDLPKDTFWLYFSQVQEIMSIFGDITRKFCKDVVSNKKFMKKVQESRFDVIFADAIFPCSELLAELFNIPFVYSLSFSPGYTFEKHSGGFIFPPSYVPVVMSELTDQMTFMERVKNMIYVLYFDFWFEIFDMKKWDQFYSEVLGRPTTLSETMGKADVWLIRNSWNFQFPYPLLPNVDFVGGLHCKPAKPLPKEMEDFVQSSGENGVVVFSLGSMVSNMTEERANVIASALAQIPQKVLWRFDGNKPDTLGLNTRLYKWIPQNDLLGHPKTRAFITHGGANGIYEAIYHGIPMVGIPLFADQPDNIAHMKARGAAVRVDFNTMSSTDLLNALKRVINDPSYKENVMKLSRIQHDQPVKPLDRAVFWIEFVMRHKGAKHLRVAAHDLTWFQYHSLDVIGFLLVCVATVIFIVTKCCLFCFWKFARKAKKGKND
Description: as §1

[3] = target: T3, UGT1A1 (Homo sapiens, UniProt P22309); assay: Covalent adduct formation of NSAIDs-AG with UGT1A1; format: binding; conditions: R vs S diastereomer; 180 μM, UGT 3.4 μM, 6 h
T3 construct: purchased Corning, Inc
T3 sequence (P22309 26-533): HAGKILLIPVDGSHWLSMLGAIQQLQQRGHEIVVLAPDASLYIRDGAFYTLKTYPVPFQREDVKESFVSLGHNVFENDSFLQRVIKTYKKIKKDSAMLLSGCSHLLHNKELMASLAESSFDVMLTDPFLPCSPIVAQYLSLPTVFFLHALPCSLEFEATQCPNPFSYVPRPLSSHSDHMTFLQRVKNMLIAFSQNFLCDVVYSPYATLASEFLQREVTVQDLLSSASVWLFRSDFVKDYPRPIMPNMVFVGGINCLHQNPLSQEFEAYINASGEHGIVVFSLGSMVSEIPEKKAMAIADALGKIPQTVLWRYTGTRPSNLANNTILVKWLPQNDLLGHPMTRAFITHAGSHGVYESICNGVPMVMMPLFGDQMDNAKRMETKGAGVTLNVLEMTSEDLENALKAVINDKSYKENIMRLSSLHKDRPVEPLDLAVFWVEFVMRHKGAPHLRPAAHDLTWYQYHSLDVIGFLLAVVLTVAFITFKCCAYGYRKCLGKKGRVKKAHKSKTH
Description: as §1, with “The conditions for electrospray ionization were set at 3500 V spray voltage for positive ionization mode and 2500 V spray voltage for negative ionization mode at 400 °C capillary temperature, and 300 °C vaporizer temperature with 40 arbitrary units of nitrogen sheath gas and 10 arbitrary units of auxiliary gas. The MS scan was operated in the positive or negative ionization mode. The selected reaction monitoring (SRM) mode was used, with argon as the collision gas at 1.5 mTorr. The mass resolution was set at 0.7 full-width at half-height (unit resolution). SRM transitions (precursor and product ions) were mass to charge ratios of (m/z) 296 > 214 for DIC (positive ionization mode), 294 > 250 for DIC (negative ionization mode), 242 > 224 for MEF, 292 > 139 for ZOM, 243 > 198 for R- and S-FLU, 255 > 209 for R- and S-KET, 231 > 185 for R- and S-NAP, and 302 > 220 for DIC-d4. The collision energies were 15 V for DIC (negative ionization mode), ZOM, MEF, FLU, KET, and NAP; 35 V for DIC (positive ionization mode); and DIC-d4.” left out

[4] = target: T4, UGT1A9 (Homo sapiens, UniProt O60656); assay: Covalent adduct formation of NSAIDs-AG with UGT1A9; format: binding; conditions: R vs S diastereomer; 180 μM, UGT 3.4 μM, 6 h
T4 construct: purchased Corning, Inc
T4 sequence (O60656 26-530): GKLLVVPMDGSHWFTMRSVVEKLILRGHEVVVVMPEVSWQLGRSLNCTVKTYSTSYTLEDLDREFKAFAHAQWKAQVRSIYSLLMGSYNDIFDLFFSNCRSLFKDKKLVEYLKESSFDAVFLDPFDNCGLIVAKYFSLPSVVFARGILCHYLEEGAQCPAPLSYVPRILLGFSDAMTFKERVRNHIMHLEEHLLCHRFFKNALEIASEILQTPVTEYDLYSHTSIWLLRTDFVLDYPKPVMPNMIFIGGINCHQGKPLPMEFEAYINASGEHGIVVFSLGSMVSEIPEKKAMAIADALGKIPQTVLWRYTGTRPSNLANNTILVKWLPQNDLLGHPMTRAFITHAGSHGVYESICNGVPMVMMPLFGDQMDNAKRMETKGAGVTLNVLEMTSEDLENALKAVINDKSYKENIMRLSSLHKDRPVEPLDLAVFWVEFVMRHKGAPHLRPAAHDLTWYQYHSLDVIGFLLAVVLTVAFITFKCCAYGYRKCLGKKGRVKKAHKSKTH
Description: as §1, with “The conditions for electrospray ionization were set at 3500 V spray voltage for positive ionization mode and 2500 V spray voltage for negative ionization mode at 400 °C capillary temperature, and 300 °C vaporizer temperature with 40 arbitrary units of nitrogen sheath gas and 10 arbitrary units of auxiliary gas. The MS scan was operated in the positive or negative ionization mode. The selected reaction monitoring (SRM) mode was used, with argon as the collision gas at 1.5 mTorr. The mass resolution was set at 0.7 full-width at half-height (unit resolution). SRM transitions (precursor and product ions) were mass to charge ratios of (m/z) 296 > 214 for DIC (positive ionization mode), 294 > 250 for DIC (negative ionization mode), 242 > 224 for MEF, 292 > 139 for ZOM, 243 > 198 for R- and S-FLU, 255 > 209 for R- and S-KET, 231 > 185 for R- and S-NAP, and 302 > 220 for DIC-d4. The collision energies were 15 V for DIC (negative ionization mode), ZOM, MEF, FLU, KET, and NAP; 35 V for DIC (positive ionization mode); and DIC-d4.” left out

[5] = parameters: method as in PMID 20606003, PMID 1673415; conditions: phosphate buffers (pH 7.4); cited from earlier work

SMILES | amounts of covalent adducts with UGT2B (UGT2B4) relative to UGT1A isoforms [1] | amounts of covalent adducts with UGT2B (UGT2B7) relative to UGT1A isoforms [2] | covalent adduct formation with UGT1A1 compared with the other diastereomer [3] | covalent adduct formation with UGT1A9 compared with the other diastereomer [4] | covalent adduct formation with UGT2B7 compared with the other diastereomer [2] | amounts of covalent adducts with UGT2B7 compared with UGT1A9 [2] | covalent adduct formation with UGT2B7 ([2]; 37 °C) | half-lives in buffers [5]
CC(C(=O)OC1OC(C(=O)O)C(O)C(O)C1O)c1ccc(-c2ccccc2)c(F)c1 (stereo not shown) [R-FLU-AG] | relatively higher amounts of covalent adducts | relatively higher amounts of covalent adducts |  |  |  |  |  | 
COc1ccc2cc(C(C)C(=O)OC3OC(C(=O)O)C(O)C(O)C3O)ccc2c1 (stereo not shown) [R-NAP-AG] | relatively higher amounts of covalent adducts | relatively higher amounts of covalent adducts | significantly more covalent adducts | significantly more covalent adducts | significantly more covalent adducts |  |  | 
CC(C(=O)OC1OC(C(=O)O)C(O)C(O)C1O)c1ccc(-c2ccccc2)c(F)c1 (stereo not shown) [S-FLU-AG] |  |  | significantly higher | significantly higher | significantly higher |  |  | 
Cc1cc(CC(=O)O[C@@H]2O[C@H](C(=O)O)[C@@H](O)[C@H](O)[C@H]2O)n(C)c1C(=O)c1ccc(Cl)cc1 [ZOM-AG] |  |  |  |  |  | significantly higher amounts of covalent adducts | higher amounts of covalent adducts | relatively short half-lives
